Key:
Assay type in all cases: in vivo
[1] = test system: Spodoptera littoralis (Egyptian cotton leaf worm); experiment: Spodoptera littoralis (systemic) test, compound in agar taken up by salad roots; details: 120 h, application rate 12.5 ppm, checked 5 days after infestation for mortality, repellent effect, feeding behavior, growth regulation
From the text: (§1) Test compounds were applied by pipette into 24 well plates and mixed with agar. Salad seeds were placed on the agar and the multi well plate is closed by another plate which contains also agar. After 7 days the roots have absorbed the compound and the salad has grown into the lid plate. The salad leafs were now cut off into the lid plate. Spodoptera eggs were pipette through a plastic stencil on a humid gel blotting paper and the plate closed with it. The samples are checked for mortality, repellent effect, feeding behavior, and growth regulation 5 days after infestation. Application rate: 12.5 ppm
as §1, with “infestation.” for “infestation. Application rate: 12.5 ppm”

[2] = test system: Spodoptera littoralis (Egyptian cotton leafworm); experiment: Spodoptera littoralis cotton leaf disc spray test; details: foliar, 72 h, cotton leaf discs sprayed at 200 ppm, 5 L1 larvae, mortality, feeding behavior, growth regulation 3 days after treatment
From the text: Cotton leaf discs were placed on agar in a 24-well microtiter plate and sprayed with test solutions at an application rate of 200 ppm. After drying, the leaf discs were infested with 5 L1 larvae. The samples were checked for mortality, feeding behavior, and growth regulation 3 days after treatment (DAT).

[3] = test system: Heliothis virescens (tobacco budworm); experiment: Heliothis virescens egg test on artificial diet; details: 96 h, 200 ppm (concentration in well 18 ppm), eggs 0-24 h old, 4 days, egg mortality, larval mortality, growth regulation
Experimental: Eggs (0-24 h old) were placed in 24-well microtiter plate on artificial diet and treated with test solutions at an application rate of 200 ppm (concentration in well 18 ppm) by pipetting. After an incubation period of 4 days, samples were checked for egg mortality, larval mortality, and growth regulation.

[4] = test system: Plutella xylostella (diamond back moth); experiment: Plutella xylostella L2 larvae test on artificial diet; details: 144 h, 200 ppm (concentration in well 18 ppm), 6 days, larval mortality and growth regulation
Experimental: 24-well microtiter plate (MTP) with artificial diet was treated with test solutions at an application rate of 200 ppm (concentration in well 18 ppm) by pipetting. After drying, the MTPs were infested with L2 larvae (7-12 per well). After an incubation period of 6 days, samples were checked for larval mortality and growth regulation.

[5] = test system: Diabrotica balteata (corn root worm); experiment: Diabrotica balteata L2 larvae test on artificial diet; details: 120 h, 200 ppm (concentration in well 18 ppm), 5 days, larval mortality and growth regulation
Summary of the method: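 Artificial diet treated with test solution at 200 ppm or 12.5 ppm application rate (in-well concentration stated as 18 ppm), dried, then infested with 6-10 L2 larvae per well. Larval mortality and growth regulation scored after 5 days.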

[6] = test system: Myzus persicae (green peach aphid); experiment: Myzus persicae (sachet) mixed population test; details: 120 h, sucrose solution, application rate 12.5 ppm, mortality 5 days after infestation
From the text: Test compounds were applied by pipette into 24 well plates and mixed with Sucrose solution. The plates were closed with a stretched Parafilm. A plastic stencil with 24 holes is placed onto the plate and infested pea seedlings were placed directly on the Parafilm. The infested plate is closed with a gel blotting paper and another plastic stencil and then turned upside down. 5 days after infestation the samples were checked on mortality. Application rate: 12.5 ppm.

[7] = test system: Thrips tabaci (onion thrips); experiment: Thrips tabaci sunflower leaf disc spray test; details: foliar, 168 h, sunflower leaf discs sprayed at 200 ppm, mixed ages, mortality after 7 days
Experimental: Sunflower leaf discs were placed on agar in a 24-well microtiter plate and sprayed with test solutions at an application rate of 200 ppm. […] After drying, the leaf discs were infested with a thrip population of mixed ages. After an incubation period of 7 days, samples were checked for mortality.

[8] = test system: Tetranychus urticae (two-spotted spider mite); experiment: Tetranychus urticae bean leaf disc spray test; details: foliar, 192 h, bean leaf discs sprayed at 200 ppm, mixed ages, egg, larval and adult mortality 8 days later
Summary of the method: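 Leaf discs of bean on agar were sprayed at 200 ppm, dried, then infested with mixed-age mites. Egg, larval and adult mortality were scored 8 days later.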

Cc1cc(C2=CC(c3cc(Cl)cc(Cl)c3)(C(F)(F)F)OC2)ccc1C(=O)NCC(=O)NCC(F)(F)F (stereo not shown) [Compound A1, 4-[5-(3,5-Dichloro-phenyl)-5-trifluoromethyl-2,5-dihydro-furan-3-yl]-2-methyl-N-[(2,2,2-trifluoro-ethylcarbamoyl)-methyl]-benzamide]
≥ 80%: pest or weed control at 12.5 ppm [1] | pest or weed control at 200 ppm [2] | pest or weed control at 200 ppm [3] | pest or weed control at 200 ppm [4] | pest or weed control at 200 ppm [5] | pest or weed control at 12.5 ppm [6] | pest or weed control at 200 ppm [7] | pest or weed control at 200 ppm [8]

Cc1cc(C2=CC(c3cc(Cl)cc(Cl)c3)(C(F)(F)F)OC2)ccc1C(=O)NC1CS(=O)(=O)C1 (stereo not shown) [Compound A15]
≥ 80%: pest or weed control at 12.5 ppm [1] | pest or weed control at 200 ppm [2] | pest or weed control at 200 ppm [3] | pest or weed control at 200 ppm [4] | pest or weed control at 200 ppm [5] | pest or weed control at 12.5 ppm [6] | pest or weed control at 200 ppm [7] | pest or weed control at 200 ppm [8]

CCN1OC[C@H](NC(=O)c2ccc(C3=CC(c4cc(Cl)cc(Cl)c4)(C(F)(F)F)OC3)cc2C)C1=O (stereo partly drawn) [Compound A16, 4-[5-(3,5-Dichloro-phenyl)-5-trifluoromethyl-2,5-dihydro-furan-3-yl]-N—((S)-2-ethyl-3-oxo-isoxazolidin-4-yl)-2-methyl-benzamide]
≥ 80%: pest or weed control at 12.5 ppm [1] | pest or weed control at 200 ppm [2] | pest or weed control at 200 ppm [3] | pest or weed control at 200 ppm [4] | pest or weed control at 200 ppm [5] | pest or weed control at 12.5 ppm [6] | pest or weed control at 200 ppm [7] | pest or weed control at 200 ppm [8]

Cc1nc(C2=CC(c3cc(Cl)cc(Cl)c3)(C(F)(F)F)OC2)ccc1C(=O)NCC(=O)NCC(F)(F)F (stereo not shown) [Compound C5]
≥ 80%: pest or weed control at 12.5 ppm [1] | pest or weed control at 200 ppm [2] | pest or weed control at 200 ppm [3] | pest or weed control at 200 ppm [4] | pest or weed control at 200 ppm [5] | pest or weed control at 12.5 ppm [6] | pest or weed control at 200 ppm [7] | pest or weed control at 200 ppm [8]

Cc1nc(C2=CC(c3cc(Cl)cc(Cl)c3)(C(F)(F)F)OC2)ccc1C(=O)NC1CS(=O)(=O)C1 (stereo not shown) [Compound C13]
≥ 80%: pest or weed control at 12.5 ppm [1] | pest or weed control at 200 ppm [2] | pest or weed control at 200 ppm [3] | pest or weed control at 200 ppm [4] | pest or weed control at 200 ppm [5] | pest or weed control at 12.5 ppm [6] | pest or weed control at 200 ppm [7] | pest or weed control at 200 ppm [8]

Cc1cc(C2=CO[C@@](c3cc(Cl)cc(Cl)c3)(C(F)(F)F)C2)ccc1C(=O)NCC(=O)NCC(F)(F)F [Compound D5, 4-[(2S)-2-(3,5-dichlorophenyl)-2-(trifluoromethyl)-3H-furan-4-yl]-2-methyl-N-[2-oxo-2-(2,2,2-trifluoroethylamino)ethyl]benzamide]
≥ 80%: pest or weed control at 12.5 ppm [1] | pest or weed control at 200 ppm [2] | pest or weed control at 200 ppm [3] | pest or weed control at 200 ppm [4] | pest or weed control at 200 ppm [5] | pest or weed control at 12.5 ppm [6] | pest or weed control at 200 ppm [7] | pest or weed control at 200 ppm [8]

Cc1cc(C2=CC(c3cc(Cl)cc(Cl)c3)(C(F)(F)F)OC2)ccc1C(=O)NCc1ccccn1 (stereo not shown) [Compound D15]
≥ 80%: pest or weed control at 12.5 ppm [1] | pest or weed control at 200 ppm [2] | pest or weed control at 200 ppm [3] | pest or weed control at 200 ppm [4] | pest or weed control at 200 ppm [5] | pest or weed control at 12.5 ppm [6] | pest or weed control at 200 ppm [7] | pest or weed control at 200 ppm [8]

O=C(CNC(=O)c1ccc(C2=CC(c3cc(Cl)cc(Cl)c3)(C(F)(F)F)OC2)nc1Cl)NCC(F)(F)F (stereo not shown) [Compound F1, 2-Chloro-6-[5-(3,5-dichloro-phenyl)-5-trifluoromethyl-2,5-dihydro-furan-3-yl]-N-[(2,2,2-trifluoro-ethylcarbamoyl)-methyl]-nicotinamide]
≥ 80%: pest or weed control at 12.5 ppm [1] | pest or weed control at 200 ppm [2] | pest or weed control at 200 ppm [3] | pest or weed control at 200 ppm [4] | pest or weed control at 200 ppm [5] | pest or weed control at 12.5 ppm [6] | pest or weed control at 200 ppm [7] | pest or weed control at 200 ppm [8]
